Measured values as given in US5998368A, “Derivatives of structurally modified VIP and pharmaceutical compositions containing them” (Yeda Research and Development Co. Ltd., priority 1991, dated 1999).
Read-outs that look alike come from different tables or passages of the source.

Columns and labels:
[1] = test system: penile erection in normal male; conditions: cited from earlier work
[2] = Stability of the test material; assay type: physicochemical
[3] = test system: Sprague Dawley rats; assay: Repeated dose toxicity, topical, 13 weeks
Experimental: The repeated dose toxicity of stearoyl-Nle^17 -VIP administered topically was investigated in 80 SPF (Specified pathogen free) rats divided into 4 groups of ten male and ten female Sprague Dawley (S.D.) strain rats purchased from Harlan, Olac, England.
Group 1: 7 μg stearoyl-Nle^17 -VIP+vehicle (1× dose)
Group 2: 700 μg stearoyl-Nle^17 -VIP+vehicle (100× dose)
Group 4: Vehicle only (5% Sefsol+20% isopropanol)

[4] = Skin penetration and body distribution of 125I-labelled conjugates after topical application to the penis; assay type: in vivo
From the text: These experiments were divided into two groups. In the first group of experiments we performed a time course of the distribution of radioactively labelled stearoyl-Nle^17 -VIP (in Sefsol 318™), applied transdermally to the penis of the animals, in various organs of the body. In the second group of experiments we compared the penetration of radioactively labelled VIP, Nle^17 -VIP St-VIP and St-Nle^17 -VIP with Sefsol 318™ following transdermal application. Two to four animals were used for each data point. The derivatives were labelled with 1251 using the chloramine-T based method^(14).
In the first group of experiments, stearoyl-Nle^17 -VIP was radioactively labelled with I^125. Each animal received 2.2 million CPM, in 6μl of the radioactive material+ 26μl ointment (ointment No. 4 in Example 5). Two animals were used for each time point in two independent experiments. To avoid oral absorbance, the animal mouth was sealed. At indicated times following topical application, animals were sacrificed and duplicate tissue samples were removed, weighed and counted in a gamma counter. Tissues measured were: lungs (LU), heart (HE), kidneys (KI), liver (Li) and intestine (IN).
In the second group of experiments compositions of Sefsol 318™ and VIP, St-VIP, Nle^17 -VIP and St-Nle^17 -VIP were prepared. The experiments were performed as in FIG. 7 with the only difference that each animal received a 2.4 million CPM, 2-4 animals were utilized for each variable. Animals were sacrificed 30 minutes after the application of the drug.

[5] = test system: penile reflexes in castrated rats; assay: Penile reflexes (E2, cups) in castrated rats after transdermal application; assay type: in vivo, rat
Experimental: (a) The ointment composition was: 31.2 μl 10% Sefsol 318™ (glyceryl monocaprylate), and either 0.24 mg stearoyl-VIP in 31.2 μl DMSO (1-2μl per animal) (SEFS in FIG. 1) or 0.24 rig stearoyl-Nle^17 -VIP in the above (SEFS* in FIG. 1).
(b) For other analogs described hereinafter 10 μl of solution were used per animal containing 7 μg of active material in a vehicle containing 5% Sefsol and 20% isopropanol.
In a further set of experiments the effects of stearoyl-VIP compounded with Sefsol 318™ were compared with those of stearoyl-Nle^17 -VIP compounded with Sefsol 318™.
In a second type of biological experiments the effects of compositions containing other modified VIP conjugates compounded with Sefsol 318™ were tested.
Rats with reduced sexual potential due to castration were employed. Male rats (250-300 g, about three month old) were kept in a 12-hours light, 12-hours dark cycle. Experiments were always conducted within the dark period, 2-6 hours after the onset of darkness. Male rats were castrated and given partial testosterone replacement (4 μg/100 g body weight) in the form of daily injection for 14-21 consecutive days (the duration of the experiment). Experiments were conducted one week following surgery.
A procedure was utilized that employed the technique that measures sexual reflexes in the penis, which enables direct evaluation of penile erection following transdermal administration of the drug. Successful reproduction depends, in large part, upon the precise execution of temporally organized, functionally related behavioural units. In these experiments, we concentrated on the final stages of the erection process (reddening of the penis accompanied by its distension and extension leading to complete erection) and monitored the latency time to the first E2 and first cup(^14).
For testing, each animal was restrained in a supine position with the anterior portion of its body enclosed in a loosely fitting cylinder (7 cm diam). After a belt was secured around the torso, the glans penis was extruded from its sheath and gently held perpendicular to the abdomen by a thin wooden applicator positioned at the posterior of the penis. The legs of the male were held by the observer and this position was maintained throughout the test period. The duration of the session was 45 minutes. The latencies and numbers of E2 and cups were recorded and plotted.
An E2 is defined as a complete erection which can be followed by cup in which the penile tip is turned into a cup-like structure, whereby the glands flare out such that the penis is wider in its distal portion than its base. This final stage requires E2 and is probably a pre-requisite for ejaculation (13). Using, all the parameters one can obtain a reliable measure of the sexual activity of the tested rat.
Six to ten animals were tested in this paradigm for each variable. Control animals received ointment compositions without the modified VIP conjugate.

[6] = test system: Sprague Dawley rats; assay: Single dose toxicity, intravenous (tail vein); assay type: in vivo, rat; conditions: for acute intravenous median lethal dose (LD50): with vehicle
Experimental: The single dose toxicity of stearoyl-Nle^17 -VIP injected intravenously, into the tail vein, was investigated in 4 groups of six male and six female rates [Sprague Dawley (S.D.) strain, purchased from Levinstein, Yokneam, Israel).
Test Groups constitution:
2. Vehicle (Sefsol 5% + isopropanol 50%)
3. Stcaroyl-Nle^17 -VIP 7 μg/rat + vehicle
4. Stearyol-Nle^17 -VIP 7,000 μg/rat + vehicle

[7] = daily topical 7, 700, 3500 μg, 13 weeks
[8] = daily topical 7, 700, 3500 μg, 13 weeks, male and female rats
[9] = Table 3, topical, 7 μg in 5% Sefsol and 20% isopropanol, castrated rats, 45 min session
[10] = Group 3, 7 μg/rat + vehicle i.v.

In the case of “Vasoactive intestinal peptide (HSDAVFTDNYTRLRKQMAVKKYLNSILN) [VIP]”, the penile response ([1]; as little as 1 μg into the corpus cavernosum, coupled with sexual stimulation) is listed as “facilitated full erection” and the penile response ([1]; up to 20 μg into the corpus cavernosum, without sexual stimulus) is listed as “caused only slight swelling of the penis but not erection”.

With “stearoyl-norleucine^17 -VIP [St-Nle^17 -VIP]” the “stability compared with stearoyl-VIP” value [2] was “more stable”, the Stability ([2]; powder) was “for a year” and the Stability ([2]; refrigerated in a solubilized form) was “for at least six weeks”. The adverse effects [3, 7] was “No dose related adverse effects”, the “clinical pathology (hematology, clinical chemistry)” value [3, 7] was “No dose related or sex related biologically meaningful treatment effects” and the “body weight gain and food consumption” value [3, 8] was “No significant differences”. The mortality [3, 8] was “No mortality associated with drug application”, the organ weight analysis ([3]; daily topical 7, 700, 3500 μg, 13 weeks, versus control group) was “No treatment related differences” and the “overall conclusion, serious adverse effects” value ([3]; daily topical application for 13 weeks, any of the dosages tested) was “did not cause any serious adverse effects”. For the same substance, the “disappearance from organs, time after administration” value ([4]; 125I-labelled, topical in Sefsol 318, FIG. 7) was 2.5 h, the “peak deliveries to organs, time after administration” value ([4]; 125I-labelled, topical in Sefsol 318, lungs, heart, kidneys, liver, intestine, FIG. 7) was 15 to 60 min and the “concentrations in kidney, liver and intestines” value ([4]; 30 minutes after topical application in Sefsol 318, compared with VIP, Nle17-VIP, St-VIP, FIG. 8) was “highest concentrations”. For the same substance, the “No. of E2” value [5, 9] was 9, the No. of cups [5, 9] was 27 and the biologically active dose ([5]; pharmacological experimentation, rat) was 7 μg per rat. The “latency to first E2” value ([5]; topical, in Sefsol 318 ointment (SEFS*), castrated rats, 45 min session, FIG. 1) was “about 1 minute”, the “latency to first cup” value ([5]; topical, in Sefsol 318 ointment (SEFS*), castrated rats, 45 min session, FIG. 2) was 10 min and the “number of E2 during the test period” value ([5]; topical, in Sefsol 318 ointment, castrated rats, 45 min session, FIG. 3) was 34. The number of cups ([5]; topical, in Sefsol 318 ointment, castrated rats, 45 min session, FIG. 4) was 20, the “efficiency according to all the four parameters tested” value ([5]; transdermal, Sefsol 318 composition, compared with stearoyl-VIP in Sefsol 318) was “more efficient” and the mortality [6, 10] was “No mortality”. The “necrotic reaction at the site of injection (tail skin), share of animals” value [6, 10] was 58%, the “necrotic reaction at the site of injection (tail skin), share of animals” value ([6]; Group 4, 7,000 μg/rat + vehicle i.v.) was “all the animals” and the mortality ([6]; Group 4, 7,000 μg/rat + vehicle i.v., within 3 hours after administration) was “Seven rats (3 male and 4 female out of 12) died”. For the same substance, the “acute intravenous median lethal dose (LD50)” value ([6]; combined males and females) was < 7,000 μg, the “acute intravenous median lethal dose (LD50)” value ([6]; male rats) was 7,000 μg/male rat and the other side effects ([6]; surviving rats of all groups) was “No other side effects”. For the same substance, the body weight gain ([6]; two weeks after i.v. dose, ANOVA versus vehicle control group) was “increased weight gain”.
